Data taken from ChEMBL document CHEMBL1201862, “PubChem BioAssay data set” (2004).
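Test compounds were applied to cells in 96-well plates for 48 hours at 5 doses. GI50 marks 50% less growth.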 Active and inactive are the calls of the source. Cut-off read from the data, not from the text of the source: active = GI50 up to about 1.1 µM and inactive = higher.

Assays:
Assay in all cases: NCI tumour cell line growth inhibition, 48 h
IGROV-1 = test system: IGROV-1
A549 = test system: A549
A498 = test system: A498
SNB-75 = test system: SNB-75
KM-20L2 = test system: KM-20L2
K562 = test system: K562
UO-31 = test system: UO-31
SK-MEL-5 = test system: SK-MEL-5
NCI-H23 = test system: NCI-H23
TK-10 = test system: TK-10
NCI-H226 = test system: NCI-H226
EKVX = test system: EKVX
MDA-N = test system: MDA-N
Hs-578T = test system: Hs-578T
CAKI-1 = test system: CAKI-1
UACC-62 = test system: UACC-62
HL-60 = test system: HL-60
COLO 205 = test system: COLO 205
NCI-H522 = test system: NCI-H522
OVCAR-3 = test system: OVCAR-3

| Structure (SMILES) | GI50 (IGROV-1) | GI50 (A549) | GI50 (A498) | GI50 (SNB-75) | GI50 (KM-20L2) | GI50 (K562) | GI50 (UO-31) | GI50 (SK-MEL-5) | GI50 (NCI-H23) | GI50 (TK-10) | GI50 (NCI-H226) | GI50 (EKVX) | GI50 (MDA-N) | GI50 (Hs-578T) | GI50 (CAKI-1) | GI50 (UACC-62) | GI50 (HL-60) | GI50 (COLO 205) | GI50 (NCI-H522) | GI50 (OVCAR-3) |
| --- | --- | --- | --- | --- | --- | --- | --- | --- | --- | --- | --- | --- | --- | --- | --- | --- | --- | --- | --- | --- |
| COC(=O)C12OCC34C(CC5C(C)=C(O)C(=O)CC5(C)C3C(O)C1O)OC(=O)C(OC(=O)C=C(C)C)C24 (centres undefined) | 330 µM (inactive) | > 500 µM (inactive) | > 500 µM (inactive) | 318 µM (inactive) | > 500 µM (inactive) | > 486 µM (inactive) | > 500 µM (inactive) | 191 µM (inactive) | > 469 µM (inactive) | < 0.215 µM (active) | 436 µM (inactive) | > 469 µM (inactive) | < 0.215 µM (active) | < 0.215 µM (active) | > 500 µM (inactive) | > 500 µM (inactive) | 498 µM (inactive) | > 500 µM (inactive) | 301 µM (inactive) |  |
| CC(=O)c1c(C)[n+]([O-])c2cc(C)c(C)cc2[n+]1[O-] | > 100 µM (inactive) | > 100 µM (inactive) | > 100 µM (inactive) | > 100 µM (inactive) | > 100 µM (inactive) | > 100 µM (inactive) | > 100 µM (inactive) | > 100 µM (inactive) | > 100 µM (inactive) | > 100 µM (inactive) | > 100 µM (inactive) | > 100 µM (inactive) |  |  | > 100 µM (inactive) | > 100 µM (inactive) | > 100 µM (inactive) | > 100 µM (inactive) | > 100 µM (inactive) | > 100 µM (inactive) |
| Cc1ccc([N+](=O)[O-])c2c(NCCCN(C)C)ccnc12 | 30 µM (inactive) | > 92 µM (inactive) | 61.4 µM (inactive) | 33.7 µM (inactive) | 26.4 µM (inactive) | 70.8 µM (inactive) | > 100 µM (inactive) | 29.6 µM (inactive) | 28.2 µM (inactive) | > 100 µM (inactive) | > 100 µM (inactive) | > 49 µM (inactive) | 33.5 µM (inactive) | > 100 µM (inactive) | > 89.5 µM (inactive) |  | 47.1 µM (inactive) | 15 µM (inactive) | 19.6 µM (inactive) | 33.1 µM (inactive) |
| NC(=O)NNC(=O)CCn1[nH]c(=O)c(Cl)c(Cl)c1=O | > 100 µM (inactive) | > 100 µM (inactive) | > 100 µM (inactive) | > 100 µM (inactive) | > 100 µM (inactive) | > 100 µM (inactive) | > 100 µM (inactive) | > 100 µM (inactive) | > 100 µM (inactive) | > 100 µM (inactive) | > 100 µM (inactive) | > 100 µM (inactive) |  |  | > 100 µM (inactive) | > 100 µM (inactive) | > 100 µM (inactive) | > 100 µM (inactive) | > 100 µM (inactive) | > 100 µM (inactive) |
| O=C(NCc1ccccc1)c1cc2ccc(O)c(O)c2cn1 | 23.7 µM (inactive) | 38.5 µM (inactive) | > 100 µM (inactive) | 17.8 µM (inactive) | > 100 µM (inactive) | 33.8 µM (inactive) | 18.1 µM (inactive) | 11.1 µM (inactive) | 12.1 µM (inactive) | > 100 µM (inactive) | 40 µM (inactive) | > 100 µM (inactive) |  |  | 17.2 µM (inactive) | 18.5 µM (inactive) | 18.8 µM (inactive) | 32.1 µM (inactive) | 16.6 µM (inactive) | 18.2 µM (inactive) |
| Cc1c(Cl)ccc2c1NC(=O)C2(O)CC(=O)c1ccc(Cl)cc1Cl (centres undefined) | > 50 µM (inactive) | > 50 µM (inactive) | 16.2 µM (inactive) | 12.8 µM (inactive) | > 50 µM (inactive) | 19.1 µM (inactive) | > 50 µM (inactive) | > 50 µM (inactive) | > 47.1 µM (inactive) | 30.5 µM (inactive) | > 29.4 µM (inactive) | > 46.5 µM (inactive) | > 50 µM (inactive) | 12.9 µM (inactive) | > 28.7 µM (inactive) | > 50 µM (inactive) |  | > 50 µM (inactive) | > 50 µM (inactive) | > 46.7 µM (inactive) |
| O=C(NCc1ccccc1)C1C(=O)C(=O)N(Cc2ccccc2)C1=O (centres undefined) | > 100 µM (inactive) | > 100 µM (inactive) | > 100 µM (inactive) | > 100 µM (inactive) | > 100 µM (inactive) | > 100 µM (inactive) | > 100 µM (inactive) | > 100 µM (inactive) | > 100 µM (inactive) | > 100 µM (inactive) | > 100 µM (inactive) | > 100 µM (inactive) |  |  | 0.0113 µM (active) | > 100 µM (inactive) | > 100 µM (inactive) | > 100 µM (inactive) | > 100 µM (inactive) | > 100 µM (inactive) |
